{"source": "patent US20210220455A1", "about": "“COMPOSITIONS AND METHODS FOR PERSONALIZED NEOPLASIA VACCINES” (The Broad Institute, Inc., priority 2013, published 2021)", "origin": "cited, not measured here", "key": {"[1]": {"test_system": "ovarian carcinoma patients", "conditions": "cited from earlier work"}, "healthy human volunteers": {"test_system": "healthy human volunteers", "conditions": "cited from earlier work"}}, "data": [{"substance": "Polyinosinic-Polycytidylic Acid-poly-L-lysine Carboxymethylcellulose [poly-ICLC]", "values": [{"measurement": "generation of NY-ESO-1-specific CD4+ and CD8+ T-cell and antibody responses", "setting": "[1]; 1.4 mg poly-ICLC and Montanide added to OLP vs OLP alone or OLP and Montanide", "result": "markedly enhanced"}, {"measurement": "patients showing induction of CD4+ and CD8+ T cell and antibody responses to the peptide", "setting": "[1]; poly-ICLC with NY-ESO-1 peptide vaccine and Montanide", "result": "> 90", "unit": "%"}, {"measurement": "differentially expressed genes versus placebo", "setting": "healthy human volunteers; 8 volunteers, one single s.c. administration vs 4 placebo subjects", "result": "up to 212 genes"}, {"measurement": "safety in human volunteer study", "setting": "healthy human volunteers; human, in vivo", "result": "safe"}]}]}
